Measured values reported in US20110178053A1, “AZACARBOLINE DERIVATIVES, PREPARATION METHOD THEREOF AND THERAPEUTIC USE OF SAME” (SANOFI-AVENTIS, priority 2008, published 2011).
Where two headings read alike, the source gives them in different places.

Key:
Type in all cases: biochemical
[1] = molecular target: T1, Pim-1 (Homo sapiens, UniProt P11309); experiment: TR-FRET assay, Pim-1 kinase (phosphorylation of Bad Ser112); conditions: read-out: IC50 Pim1
T1 construct: His6-labelled recombinant full-length human Pim-1, Pim-2 or Pim-3 protein; His6; made in house
Experimental: (§1) In order to determine the inhibition of activation of Pim kinases, the compounds of the invention are tested in accordance with a routinely used in vitro TR-FRET assay (Time-Resolved Fluorescence Resonance Energy Transfer). […] For the assay, the following reagents are used:
(§2) Pim kinase—His6-labelled recombinant full-length human Pim-1, Pim-2 or Pim-3 protein (prepared according to J. Mol. Biol. (2005) 348, 183-193); Bad—His6-labelled recombinant full-length human Bad protein (prepared according to J. Mol. Biol. (2005) 348, 183-193); α-His6-APC—murine monoclonal antibody conjugated to allophycocyanin SureLight™ directed against the His6 label (Perkin-Elmer, No. AD0059H, Waltham, Mass., United States); • β-P˜Bad-Eu—murine monoclonal antibody (Cell Signaling Technology #9296B, Danvers, Mass., United States) directed against phosphoBad (Ser112) (7E11) custom-labelled by Perkin-Elmer with the reagent LANCE™ Eu-W1024.
(§3) The assay is based on Perkin-Elmer's LANCE™ technology: the Eu-labelled antibody binds to phospho-Ser112 and generates a TR-FRET signal by interaction with the APC-labelled antibody directed against His6, bound to the His6 label of Bad. The TR-FRET signal is detected using a SpectraMax M5 plate reader (Molecular Devices) with the following settings: λex=340 nm, λem1=615 nm, λem2=665 nm. The ratio of the fluorescence signal at 665 nm to the fluorescence signal at 615 nm is used as the signal reading for the IC50 (calculation is based on the 4-parameter logistic model). The assay is performed in a 384-well format; the liquid manipulations are performed using a Beckman 3000 liquid manipulations station. The test compounds are tested at 10 concentration points in duplicate; the highest compound concentration is typically equal to 30 μM. The ATP concentration is equal to 40 μM, which is equivalent to the apparent KM value.

[2] = molecular target: T2, Pim-2 (Homo sapiens, UniProt Q9P1W9); experiment: TR-FRET assay, Pim-2 kinase (phosphorylation of Bad Ser112); conditions: read-out: IC50 Pim2
T2 construct: His6-labelled recombinant full-length human Pim-1, Pim-2 or Pim-3 protein; His6; made in house
Experimental: as §1, §2, §3

[3] = molecular target: T3, Pim-3 (Homo sapiens, UniProt Q86V86); experiment: TR-FRET assay, Pim-3 kinase (phosphorylation of Bad Ser112); conditions: read-out: IC50 Pim3
T3 construct: His6-labelled recombinant full-length human Pim-1, Pim-2 or Pim-3 protein; His6; made in house
Experimental: as §1, §2, §3

[4] = comparative compounds (Compound No., not claimed)

T2 sequence (Q9P1W9 whole entry): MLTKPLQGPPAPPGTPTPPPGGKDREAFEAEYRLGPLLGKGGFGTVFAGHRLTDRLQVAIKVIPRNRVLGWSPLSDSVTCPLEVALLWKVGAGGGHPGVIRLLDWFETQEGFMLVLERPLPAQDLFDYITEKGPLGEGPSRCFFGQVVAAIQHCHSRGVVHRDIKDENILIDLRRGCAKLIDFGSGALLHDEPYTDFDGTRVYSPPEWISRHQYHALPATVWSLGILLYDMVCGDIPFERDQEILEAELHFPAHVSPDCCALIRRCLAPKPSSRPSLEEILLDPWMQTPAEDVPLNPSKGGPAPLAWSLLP
T1 sequence (P11309 whole entry): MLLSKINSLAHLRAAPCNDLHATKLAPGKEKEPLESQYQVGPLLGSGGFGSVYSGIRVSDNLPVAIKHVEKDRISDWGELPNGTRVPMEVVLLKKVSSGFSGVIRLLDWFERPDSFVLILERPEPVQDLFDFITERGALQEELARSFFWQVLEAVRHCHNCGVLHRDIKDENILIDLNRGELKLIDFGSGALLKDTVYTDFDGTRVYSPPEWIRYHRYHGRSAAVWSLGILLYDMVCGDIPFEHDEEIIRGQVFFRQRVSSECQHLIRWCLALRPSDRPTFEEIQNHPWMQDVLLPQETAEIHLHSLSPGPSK

| SMILES | IC50 [1, 4] | IC50 [2, 4] | IC50 [3, 4] | IC50 ([1]; TR-FRET, ATP 40 μM) | IC50 ([2]; TR-FRET, ATP 40 μM) | IC50 ([3]; TR-FRET, ATP 40 μM) |
| --- | --- | --- | --- | --- | --- | --- |
| COc1cc2c(cn1)[nH]c1cnc(-c3cccnc3)cc12 [Compound 51] | > 5000 nM | > 5 µM | > 5000 nM | – | – | – |
| c1cncc(-c2cnc3[nH]c4ncccc4c3c2)c1 [Compound 56] | > 5000 nM | > 5 µM | > 5000 nM | – | – | – |
| COC(=O)c1cnc2[nH]c3cnc(-c4cccnc4)cc3c2c1 [Example 3, methyl 6-(pyrid-3-yl)-9H-pyrrolo[2,3-b:5,4-c′]dipyridine-3-carboxylate] | – | – | – | 100 to 1000 nM | – | – |
| CCOC(=O)c1cnc2[nH]c3cnc(-c4cccnc4)cc3c2c1 [Example 4, ethyl 6-(pyrid-3-yl)-9H-pyrrolo [2,3-b:5,4-c′] dipyridine-3-carboxylate] | – | – | – | 1 to 100 nM | 1 to 5 µM | 100 to 1000 nM |
| Brc1cnc2[nH]c3cnc(-c4cccnc4)cc3c2c1 [Example 9, 3-bromo-6-(pyrid-3-yl)-9H-pyrrolo[2,3-b:5,4-c′]dipyridine] | – | – | – | 100 to 1000 nM | 1 to 5 µM | 100 to 1000 nM |
| CCN(CC)c1cnc2[nH]c3cnc(-c4cccnc4)cc3c2c1 [Example 11, N,N-diethyl-6-(pyrid-3-yl)-9H-pyrrolo[2,3-b:5,4-c′]dipyrid-3-amine] | – | – | – | 1000 to 5000 nM | – | – |
| CN(CCCC(=O)N1CCCC1)c1cnc2[nH]c3cnc(-c4cccnc4)cc3c2c1 [Example 12, 4-{methyl[6-(pyrid-3-yl)-9H-pyrrolo-[2,3-b:5,4-c′]dipy-rid-3-yl]amino}-1-(pyrrolidin-1-yl)-butan-1-one] | – | – | – | 100 to 1000 nM | – | – |
| Clc1cnc2[nH]c3cnc(-c4cccnc4)cc3c2c1 [Example 13, 3-chloro-6-(pyrid-3-yl)-9H-pyrrolo[2,3-b:5,4-c′]dipyridine] | – | – | – | 100 to 1000 nM | 1 to 5 µM | 100 to 1000 nM |
| CC(C)(O)c1cnc2[nH]c3cnc(-c4cccnc4)cc3c2c1 [Example 16, 2-[6-(pyrid-3-yl)-9H-pyrrolo[2,3-b:5,4-c′]dipyrid-3-yl]propan-2-ol] | – | – | – | 1000 to 5000 nM | 1 to 5 µM | 100 to 1000 nM |
| OCc1cnc2[nH]c3cnc(-c4cccnc4)cc3c2c1 [Example 17, [6-(pyrid-3-yl)-9H-pyrrolo[2,3-b:5,4-c′]dipyrid-3-yl]methanol] | – | – | – | 100 to 1000 nM | > 5 µM | 100 to 1000 nM |
| CC(C)COC(=O)c1cnc2[nH]c3cnc(-c4cccnc4)cc3c2c1 [Example 18, 2-methylpropyl 6-(pyrid-3-yl)-9H-pyrrolo[2,3-b:5,4-c′]dipyridine-3-carboxylate] | – | – | – | 1 to 100 nM | > 5 µM | 100 to 1000 nM |
| O=C(O)c1cnc2[nH]c3cnc(-c4cccnc4)cc3c2c1 [Example 19, 6-(pyrid-3-yl)-9H-pyrrolo[2,3-b:5,4-c′]dipyridine-3-carboxylic acid] | – | – | – | 100 to 1000 nM | – | – |
| Fc1cnc2[nH]c3cnc(-c4cccnc4)cc3c2c1I [Example 20, 3-fluoro-4-iodo-6-(pyrid-3-yl)-9H-pyrrolo[2,3-b:5,4-c′]dipyridine] | – | – | – | 1 to 100 nM | – | – |
| Fc1cnc2[nH]c3cnc(-c4cccnc4)cc3c2c1/C=C/c1ccccc1 [Example 24, 3-fluoro-4-[(E)-2-phenylethenyl]-6-(pyrid-3-yl)-9H-pyrrolo[2,3-b:5,4-c′]dipyridine] | – | – | – | 100 to 1000 nM | > 5 µM | 1000 to 5000 nM |
| Fc1cc(F)cc(-c2c(F)cnc3[nH]c4cnc(-c5cccnc5)cc4c23)c1 [Example 25, 4-(3,5-difluorophenyl)-3-fluoro-6-(pyrid-3-yl)-9H-pyrrolo [2,3-b:5,4-c′]-dipyridine] | – | – | – | 1 to 100 nM | > 5 µM | 100 to 1000 nM |
| CCOC(=O)/C=C/c1c(F)cnc2[nH]c3cnc(-c4cccnc4)cc3c12 [Example 29, ethyl (2E)-3-[3-fluoro-6-(pyrid-3-yl)-9H-pyrrolo-[2,3-b:5,4-c′]dipyrid-4-yl]prop-2-enoate] | – | – | – | 100 to 1000 nM | > 5 µM | 100 to 1000 nM |

| SMILES | IC50 [1, 4] | IC50 [2, 4] | IC50 [3, 4] | IC50 ([1]; TR-FRET, ATP 40 μM) | IC50 ([2]; TR-FRET, ATP 40 μM) | IC50 ([3]; TR-FRET, ATP 40 μM) |
| --- | --- | --- | --- | --- | --- | --- |
| OCC(O)CCc1c(F)cnc2[nH]c3cnc(-c4cccnc4)cc3c12 (centres unmarked) [Example 30, 4-(3-fluoro-6-(pyrid-3-yl)-9H-pyrrolo[2,3-b:5,4-c′]dipyrid-4-yl]butane-1,2-diol] | – | – | – | 1 to 100 nM | 1 to 5 µM | 100 to 1000 nM |
| Fc1cnc2[nH]c3cnc(-c4cccnc4)cc3c2c1-c1cccc(N2CCOCC2)c1 [Example 31, 3-fluoro-4-[3-(morpholin-4-yl)phenyl]-6-(pyrid-3-yl)-9H-pyrrolo [2,3-b:5,4-c′]dipyridine] | – | – | – | 100 to 1000 nM | > 5 µM | 1000 to 5000 nM |
| CN(C(=O)c1c(F)cnc2[nH]c3cnc(-c4cccnc4)cc3c12)c1ccccc1 [Example 35, 3-fluoro-N-methyl-N-phenyl-6-(pyrid-3-yl)-9H-pyrrolo[2,3-b:5,4-c′]-dipyridine-4-carboxamide] | – | – | – | 100 to 1000 nM | > 5 µM | 1000 to 5000 nM |
| Fc1cnc2[nH]c3cnc(-c4cccnc4)cc3c2c1Cl [Example 37, 4-chloro-3-fluoro-6-(pyrid-3-yl)-9H-pyrrolo[2,3-b:5,4-c′]dipyridine] | – | – | – | 100 to 1000 nM | > 5 µM | 1000 to 5000 nM |
| Cc1c(F)cnc2[nH]c3cnc(-c4cccnc4)cc3c12 [Example 38, 4-methyl-3-fluoro-6-(pyrid-3-yl)-9H-pyrrolo[2,3-b:5,4-c′]dipyridine] | – | – | – | 100 to 1000 nM | > 5 µM | 100 to 1000 nM |
| Fc1ccc(-c2cc3c(cn2)[nH]c2ncccc23)cn1 [Example 41, 6-(6-fluoropyrid-3-yl)-9H-pyrrolo[2,3-b:5,4-c′]dipyridine] | – | – | – | 1000 to 5000 nM | > 5 µM | > 5000 nM |
| Fc1cncc(-c2cc3c(cn2)[nH]c2ncccc23)c1 [Example 42, 6-(5-fluoropyrid-3-yl)-9H-pyrrolo[2,3-b:5,4-c′]dipyridine] | – | – | – | 1000 to 5000 nM | – | – |
| O=S(=O)(Nc1ccc(-c2c(F)cnc3[nH]c4cnc(-c5cccnc5)cc4c23)cc1)C1CC1 [Example 46, N-{4-[3-fluoro-6-(pyrid-3-yl)-9H-pyrrolo[2,3-b:5,4-c′]dipyrid-4-yl]phenyl}cyclo-propanesulfonamide] | – | – | – | 1 to 100 nM | 0.1 to 1 µM | 1 to 100 nM |
| COc1ccc(-c2c(F)cnc3[nH]c4cnc(-c5cccnc5)cc4c23)cn1 [Example 52, 3-fluoro-4-(6-methoxypyrid-3-yl)-6-(pyrid-3-yl)-9H-pyrrolo[2,3-b:5,4-c′]-dipyridine] | – | – | – | 100 to 1000 nM | > 5 µM | 100 to 1000 nM |
| CS(=O)(=O)Nc1cccc(-c2c(F)cnc3[nH]c4cnc(-c5cccnc5)cc4c23)c1 [Example 53, N-{3-[3-fluoro-6-(pyrid-3-yl)-9H-pyrrolo[2,3-b:5,4-c′]-dipyrid-4-yl]phenyl}-methanesulfonamide] | – | – | – | 1 to 100 nM | 1 to 5 µM | 100 to 1000 nM |
| Cc1csc(-c2c(F)cnc3[nH]c4cnc(-c5cccnc5)cc4c23)c1 [Example 54, 3-fluoro-4-(4-methylthiophen-2-yl)-6-(pyrid-3-yl)-9H-pyrrolo[2,3-b:5,4-c′]dipyridine] | – | – | – | 1 to 100 nM | > 5 µM | 100 to 1000 nM |
| Fc1cnc2[nH]c3cnc(-c4cccnc4)cc3c2c1-c1ccc2cc[nH]c2c1 [Example 55] | – | – | – | 1 to 100 nM | 1 to 5 µM | 100 to 1000 nM |
| CC(C)(C)OC(=O)N1CCN(c2ccc(-c3cnc4[nH]c5cnc(-c6cccnc6)cc5c4c3)cc2)CC1 [Example 129, 2-methyl-2-propyl 4-{4-[6-(pyrid-3-yl)-9H-pyrrolo[2,3-b:5,4-c′]dipyrid-3-yl]phenyl}-piperazine-1-carboxylate] | – | – | – | 100 to 1000 nM | – | 100 to 1000 nM |
| CC(C)(C)OC(=O)N1CCN(c2cccc(-c3cnc4[nH]c5cnc(-c6cccnc6)cc5c4c3)c2)CC1 [Example 131, 2-methyl-2-propyl 4-{3-[6-(pyrid-3-yl)-9H-pyrrolo[2,3-b:5,4-c′]dipyrid-3-yl]phenyl}piperazine-1-carboxylate] | – | – | – | 100 to 1000 nM | – | 100 to 1000 nM |
| CCc1cc(N(CC)CC)ncc1-c1cnc2[nH]c3cnc(-c4cccnc4)cc3c2c1 [Example 133, N,N-4-triethyl-5-[6-(pyrid-3-yl)-9H-pyrrolo[2,3-b:5,4-c′]dipyrid-3-yl]pyrid-2-amine] | – | – | – | 1 to 100 nM | – | 100 to 1000 nM |
| CC(C)(C)OC(=O)N1CCN(c2cc(-c3cnc4[nH]c5cnc(-c6cccnc6)cc5c4c3)ccn2)CC1 [Example 143, 2-methyl-2-propyl 4-{4-[6-(pyrid-3-yl)-9H-pyrrolo[2,3-b:5,4-c′]dipyrid-3-yl]pyrid-2-yl}piperazine-1-carboxylate] | – | – | – | 100 to 1000 nM | – | 100 to 1000 nM |
